Source: the supplement of paper PMC10627819

Tests used:
S. pneumoniae D39V = test: fitness (endpoint OD595 vs no drug) (fraction); higher = more growth
Method in brief: (§1)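 Background-subtracted growth curves were the basis for fitness, taken as the optical density at entry into stationary phase over the robust mean of no-drug control wells. A cap of 1 was applied. The curves came from OD595 readings every 30 min for 14 h at 37 °C, in 384-well plates seeded at OD595 0.01 with 30 µl, or 55 µl for S. pneumoniae.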

B. subtilis 168 = test: as above
Method in brief: as §1

O=C(O)[C@H]1/C(=C/CO)O[C@@H]2CC(=O)N21 [Clavulanic acid] + C/C(=C\C(=O)OCCCCCCCCC(=O)O)C[C@@H]1OC[C@H](C[C@@H]2O[C@H]2[C@@H](C)[C@H](C)O)[C@@H](O)[C@H]1O [Pseudomonic acid]
fitness, S. pneumoniae D39V
Details | first compound 0.5 µg/mL | first compound 1 µg/mL | first compound 2 µg/mL
partner 0.03 µg/mL | 0.921 | 0.906 | 0.832
partner 0.06 µg/mL | 0.769 | 0.803 | 0.656
partner 0.12 µg/mL | 0.408 | 0.519 | 0.277

O=C(O)[C@H]1/C(=C/CO)O[C@@H]2CC(=O)N21 [Clavulanic acid] + CC(=O)NC[C@H]1CN(c2ccc(N3CCOCC3)c(F)c2)C(=O)O1 [Linezolid]
B. subtilis 168, partner 0.0625 µg/mL, one replicate
Details | fitness
first compound 1.5 µg/mL | 0.85
first compound 3 µg/mL | 0.773
first compound 6 µg/mL | 0.789

fitness
Details | partner 0.105 µg/mL | partner 0.125 µg/mL | partner 0.2 µg/mL | partner 0.21 µg/mL | partner 0.25 µg/mL | partner 0.4 µg/mL | partner 0.42 µg/mL | partner 0.5 µg/mL | partner 0.8 µg/mL
B. subtilis 168, first compound 1.5 µg/mL | – | 0.659 | – | – | 0.247 | – | – | 0.0633 | –
B. subtilis 168, first compound 3 µg/mL | – | 0.597 | – | – | 0.184 | – | – | 0.025 | –
B. subtilis 168, first compound 6 µg/mL | – | 0.585 | – | – | 0.151 | – | – | 0.0316 | –
S. pneumoniae D39V, first compound 0.5 µg/mL | 0.808 | – | 0.474 | 0.658 | – | 0.261 | 0.453 | – | 0.075
S. pneumoniae D39V, first compound 1 µg/mL | 0.801 | – | 0.531 | 0.67 | – | 0.363 | 0.443 | – | 0.226
S. pneumoniae D39V, first compound 2 µg/mL | 0.749 | – | 0.392 | 0.567 | – | 0.22 | 0.238 | – | 0.102

O=C(O)[C@H]1/C(=C/CO)O[C@@H]2CC(=O)N21 [Clavulanic acid] + CCC(C)C1C(=O)NC(=C)C(=O)NC(C(=O)NC(CSCC(C(=O)N1)NC(=O)/C(=C/C)/NC(=O)C(C(C)CC)N)C(=O)NC2C(SCC(NC(=O)CNC(=O)C3CCCN3C2=O)C(=O)NC(CCCCN)C(=O)NC4C(SCC(NC(=O)CNC(=O)C(NC(=O)C(NC(=O)C(NC(=O)CNC4=O)C)CC(C)C)CCSC)C(=O)NC(CC(=O)N)C(=O)NC(CCSC)C(=O)NC(CCCCN)C(=O)NC5C(SCC6C(=O)NC(C(=O)NC(CSC(C(C(=O)N6)NC(=O)C(NC5=O)C)C)C(=O)NC(CO)C(=O)NC(C(C)CC)C(=O)NC(CC7=CN=CN7)C(=O)NC(C(C)C)C(=O)NC(=C)C(=O)NC(CCCCN)C(=O)O)CC8=CN=CN8)C)C)C)CC(C)C [Nisin]
main component drawn
Details | fitness
B. subtilis 168, first compound 1.5 µg/mL, partner 0.5 µg/mL | 0.814
B. subtilis 168, first compound 1.5 µg/mL, partner 1 µg/mL | 0.775
B. subtilis 168, first compound 1.5 µg/mL, partner 2 µg/mL | 0.541
B. subtilis 168, first compound 3 µg/mL, partner 0.5 µg/mL | 0.797
B. subtilis 168, first compound 3 µg/mL, partner 1 µg/mL | 0.769
B. subtilis 168, first compound 3 µg/mL, partner 2 µg/mL | 0.595
B. subtilis 168, first compound 6 µg/mL, partner 0.5 µg/mL | 0.738
B. subtilis 168, first compound 6 µg/mL, partner 1 µg/mL | 0.703
B. subtilis 168, first compound 6 µg/mL, partner 2 µg/mL | 0.485
S. pneumoniae D39V, first compound 0.5 µg/mL, partner 0.4275 µg/mL | 0.973
S. pneumoniae D39V, first compound 0.5 µg/mL, partner 1.6 µg/mL | 0.0053
S. pneumoniae D39V, first compound 0.5 µg/mL, partner 1.71 µg/mL | 0.0946
S. pneumoniae D39V, first compound 0.5 µg/mL, partner 3.2 µg/mL | 0.0291
S. pneumoniae D39V, first compound 0.5 µg/mL, partner 6.4 µg/mL | 0.0063
S. pneumoniae D39V, first compound 1 µg/mL, partner 0.4275 µg/mL | 0.982
S. pneumoniae D39V, first compound 1 µg/mL, partner 1.6 µg/mL | 0.16
S. pneumoniae D39V, first compound 1 µg/mL, partner 1.71 µg/mL | 0.0481
S. pneumoniae D39V, first compound 1 µg/mL, partner 3.2 µg/mL | 0.154
S. pneumoniae D39V, first compound 1 µg/mL, partner 6.4 µg/mL | 0.16
S. pneumoniae D39V, first compound 2 µg/mL, partner 0.4275 µg/mL | 0.929
S. pneumoniae D39V, first compound 2 µg/mL, partner 0.855 µg/mL | 0.617
S. pneumoniae D39V, first compound 2 µg/mL, partner 1.6 µg/mL | 0.0042
S. pneumoniae D39V, first compound 2 µg/mL, partner 1.71 µg/mL | 0.0736
S. pneumoniae D39V, first compound 2 µg/mL, partner 3.2 µg/mL | 0.0076
S. pneumoniae D39V, first compound 2 µg/mL, partner 6.4 µg/mL | 0.0001

fitness, B. subtilis 168, one replicate, main component drawn
Details | partner 1.25 µg/mL | partner 1.6 µg/mL | partner 2.5 µg/mL | partner 3.2 µg/mL | partner 4 µg/mL | partner 5 µg/mL | partner 6.4 µg/mL | partner 8 µg/mL | partner 16 µg/mL
first compound 1.5 µg/mL | 0.802 | 0.697 | 0.537 | 0.0178 | 0.0192 | 0.0574 | 0.0673 | 0.0099 | 0.0067
first compound 3 µg/mL | 0.765 | 0.733 | 0.48 | 0.0108 | 0.178 | 0.0615 | 0.0551 | 0.0036 | 0.0134
first compound 6 µg/mL | 0.57 | 0.67 | 0.182 | 0.0221 | 0.117 | 0.0792 | 0.0542 | 0.0002 | 0

O=C(O)[C@H]1/C(=C/CO)O[C@@H]2CC(=O)N21 [Clavulanic acid] + CCC[C@@H]1C[C@@H](C(=O)N[C@@H]([C@H]2O[C@H](SC)[C@H](O)[C@@H](O)[C@H]2O)[C@@H](C)O)N(C)C1 [Lincomycin]
fitness
Details | partner 0.1 µg/mL | partner 0.2 µg/mL | partner 0.215 µg/mL | partner 0.4 µg/mL | partner 0.43 µg/mL | partner 0.8 µg/mL | partner 0.86 µg/mL
B. subtilis 168, first compound 1.5 µg/mL | 0.91 | 0.868 | – | 0.892 | – | – | –
B. subtilis 168, first compound 3 µg/mL | 0.835 | 0.837 | – | 0.838 | – | – | –
B. subtilis 168, first compound 6 µg/mL | 0.822 | 0.686 | – | 0.704 | – | – | –
S. pneumoniae D39V, first compound 0.5 µg/mL | – | 0.571 | 0.828 | 0.326 | 0.726 | 0.0312 | 0.39
S. pneumoniae D39V, first compound 1 µg/mL | – | 0.591 | 0.809 | 0.354 | 0.687 | 0.186 | 0.332
S. pneumoniae D39V, first compound 2 µg/mL | – | 0.406 | 0.726 | 0.258 | 0.606 | 0.045 | 0.21

fitness, B. subtilis 168, one replicate
Details | first compound 1.5 µg/mL | first compound 3 µg/mL | first compound 6 µg/mL
partner 0.8 µg/mL | 0.832 | 0.761 | 0.729
partner 1.6 µg/mL | 0.913 | 0.802 | 0.708

O=C(O)[C@H]1/C(=C/CO)O[C@@H]2CC(=O)N21 [Clavulanic acid] + CC[C@H]1OC(=O)[C@H](C)[C@@H](O[C@H]2C[C@@](C)(OC)[C@@H](O)[C@H](C)O2)[C@H](C)[C@@H](O[C@@H]2O[C@H](C)C[C@H](N(C)C)[C@H]2O)[C@](C)(OC)C[C@@H](C)C(=O)[C@H](C)[C@@H](O)[C@]1(C)O [Clarithromycin]
fitness, S. pneumoniae D39V, one replicate
Details | first compound 0.5 µg/mL | first compound 1 µg/mL | first compound 2 µg/mL
partner 0.007812 µg/mL | 0.855 | 0.828 | 0.801
partner 0.01562 µg/mL | 0.829 | 0.792 | 0.769
partner 0.03125 µg/mL | 0.597 | 0.574 | 0.509

fitness, S. pneumoniae D39V
Details | partner 0.0625 µg/mL | partner 0.07 µg/mL | partner 0.125 µg/mL | partner 0.14 µg/mL | partner 0.25 µg/mL | partner 0.28 µg/mL
first compound 0.5 µg/mL | 0.486 | 0.103 | 0.232 | 0.0628 | 0.0756 | 0.0401
first compound 1 µg/mL | 0.541 | 0.088 | 0.361 | 0.0781 | 0.209 | 0.0556
first compound 2 µg/mL | 0.325 | 0.0584 | 0.191 | 0.062 | 0.0711 | 0.0369

O=C(O)[C@H]1/C(=C/CO)O[C@@H]2CC(=O)N21 [Clavulanic acid] + CN(C)C(=O)C(CCN1CCC(O)(c2ccc(Cl)cc2)CC1)(c1ccccc1)c1ccccc1 [Loperamide]
fitness
Details | first compound 0.5 µg/mL | first compound 1 µg/mL | first compound 1.5 µg/mL | first compound 2 µg/mL | first compound 3 µg/mL | first compound 6 µg/mL
B. subtilis 168, partner 25 µg/mL | – | – | 0.848 | – | 0.742 | 0.614
S. pneumoniae D39V, partner 17.14 µg/mL | 0.954 | 0.95 | – | 0.836 | – | –
S. pneumoniae D39V, partner 20 µg/mL | ≥ 1 | ≥ 1 | – | 0.89 | – | –
S. pneumoniae D39V, partner 34.28 µg/mL | 0.931 | 0.913 | – | 0.75 | – | –
S. pneumoniae D39V, partner 40 µg/mL | ≥ 1 | ≥ 1 | – | 0.926 | – | –
S. pneumoniae D39V, partner 80 µg/mL | 0.0391 | 0.185 | – | 0.0465 | – | –

S. pneumoniae D39V, partner 68.57 µg/mL, one replicate
Details | fitness
first compound 0.5 µg/mL | 0.952
first compound 1 µg/mL | 0.944
first compound 2 µg/mL | 0.849

O=C(O)[C@H]1/C(=C/CO)O[C@@H]2CC(=O)N21 [Clavulanic acid] + CN(C)[C@@H]1C(O)=C(C(N)=O)C(=O)[C@@]2(O)C(O)=C3C(=O)c4c(O)ccc(Cl)c4[C@@](C)(O)[C@H]3C[C@@H]12 [Chlortetracycline]
fitness
Details | partner 0.012 µg/mL | partner 0.024 µg/mL | partner 0.0475 µg/mL | partner 0.048 µg/mL | partner 0.095 µg/mL | partner 0.19 µg/mL | partner 0.375 µg/mL | partner 0.75 µg/mL | partner 1.5 µg/mL
B. subtilis 168, first compound 1.5 µg/mL | – | – | 0.873 | – | 0.754 | 0.58 | – | – | –
B. subtilis 168, first compound 3 µg/mL | – | – | 0.838 | – | 0.708 | 0.512 | – | – | –
B. subtilis 168, first compound 6 µg/mL | – | – | 0.745 | – | 0.582 | 0.422 | – | – | –
S. pneumoniae D39V, first compound 0.5 µg/mL | 0.906 | 0.699 | – | 0.306 | – | – | 0.0436 | 0.0585 | 0.0458
S. pneumoniae D39V, first compound 1 µg/mL | 0.821 | 0.686 | – | 0.366 | – | – | 0.0323 | 0.0545 | 0.0428
S. pneumoniae D39V, first compound 2 µg/mL | 0.618 | 0.462 | – | 0.246 | – | – | 0.0402 | 0.0396 | 0.0545

O=C(O)[C@H]1/C(=C/CO)O[C@@H]2CC(=O)N21 [Clavulanic acid] + CO/N=C(\C(=O)N[C@@H]1C(=O)N2C(C(=O)O)=C(COC(N)=O)CS[C@H]12)c1ccco1 [Cefuroxime]
fitness, B. subtilis 168
Details | first compound 1.5 µg/mL | first compound 3 µg/mL | first compound 6 µg/mL
partner 0.04875 µg/mL | 0.661 | 0.626 | 0.562
partner 0.0975 µg/mL | 0.651 | 0.607 | 0.542
partner 0.195 µg/mL | – | 0.345 | 0.359

fitness, B. subtilis 168, one replicate
Details | partner 0.39 µg/mL | partner 0.78 µg/mL | partner 1.562 µg/mL | partner 3.125 µg/mL | partner 6.25 µg/mL
first compound 1.5 µg/mL | 0.288 | 0.232 | 0.353 | 0.235 | 0.202
first compound 3 µg/mL | 0.0208 | 0.0871 | 0.319 | 0.276 | 0.238
first compound 6 µg/mL | 0.216 | 0.172 | 0.241 | 0.18 | 0.142
